Measurements reported in ChEMBL document CHEMBL1938362, “Synthesis and properties of molecular probes for the rescue site on mutant cystic fibrosis transmembrane conductance regulator” (J Med Chem, 2011).

Tests used:
[1] = system: Cystic fibrosis transmembrane conductance regulator (Homo sapiens), P13569 [G551D]; assay: Modulation of C-terminal His10-tagged CFTR G551D mutant in liposomes of egg phosphatidylcholine assessed as increase in iodine influx at 10 uM after 5 mins […] in presence of protein kinase A and valinomycin relative to control
BHK = assay: Modulation of CFTR F508 deletion mutant expressed in BHK cells assessed as increase in forskolin-stimulated iodine influx at 10 uM after 5 mins […] (reference value: 1.4 +/- 0.4 nM/s); format: cell-based

Chain of Cystic fibrosis transmembrane conductance regulator (Homo sapiens), P13569 [G551D] (P13569 whole entry G551D): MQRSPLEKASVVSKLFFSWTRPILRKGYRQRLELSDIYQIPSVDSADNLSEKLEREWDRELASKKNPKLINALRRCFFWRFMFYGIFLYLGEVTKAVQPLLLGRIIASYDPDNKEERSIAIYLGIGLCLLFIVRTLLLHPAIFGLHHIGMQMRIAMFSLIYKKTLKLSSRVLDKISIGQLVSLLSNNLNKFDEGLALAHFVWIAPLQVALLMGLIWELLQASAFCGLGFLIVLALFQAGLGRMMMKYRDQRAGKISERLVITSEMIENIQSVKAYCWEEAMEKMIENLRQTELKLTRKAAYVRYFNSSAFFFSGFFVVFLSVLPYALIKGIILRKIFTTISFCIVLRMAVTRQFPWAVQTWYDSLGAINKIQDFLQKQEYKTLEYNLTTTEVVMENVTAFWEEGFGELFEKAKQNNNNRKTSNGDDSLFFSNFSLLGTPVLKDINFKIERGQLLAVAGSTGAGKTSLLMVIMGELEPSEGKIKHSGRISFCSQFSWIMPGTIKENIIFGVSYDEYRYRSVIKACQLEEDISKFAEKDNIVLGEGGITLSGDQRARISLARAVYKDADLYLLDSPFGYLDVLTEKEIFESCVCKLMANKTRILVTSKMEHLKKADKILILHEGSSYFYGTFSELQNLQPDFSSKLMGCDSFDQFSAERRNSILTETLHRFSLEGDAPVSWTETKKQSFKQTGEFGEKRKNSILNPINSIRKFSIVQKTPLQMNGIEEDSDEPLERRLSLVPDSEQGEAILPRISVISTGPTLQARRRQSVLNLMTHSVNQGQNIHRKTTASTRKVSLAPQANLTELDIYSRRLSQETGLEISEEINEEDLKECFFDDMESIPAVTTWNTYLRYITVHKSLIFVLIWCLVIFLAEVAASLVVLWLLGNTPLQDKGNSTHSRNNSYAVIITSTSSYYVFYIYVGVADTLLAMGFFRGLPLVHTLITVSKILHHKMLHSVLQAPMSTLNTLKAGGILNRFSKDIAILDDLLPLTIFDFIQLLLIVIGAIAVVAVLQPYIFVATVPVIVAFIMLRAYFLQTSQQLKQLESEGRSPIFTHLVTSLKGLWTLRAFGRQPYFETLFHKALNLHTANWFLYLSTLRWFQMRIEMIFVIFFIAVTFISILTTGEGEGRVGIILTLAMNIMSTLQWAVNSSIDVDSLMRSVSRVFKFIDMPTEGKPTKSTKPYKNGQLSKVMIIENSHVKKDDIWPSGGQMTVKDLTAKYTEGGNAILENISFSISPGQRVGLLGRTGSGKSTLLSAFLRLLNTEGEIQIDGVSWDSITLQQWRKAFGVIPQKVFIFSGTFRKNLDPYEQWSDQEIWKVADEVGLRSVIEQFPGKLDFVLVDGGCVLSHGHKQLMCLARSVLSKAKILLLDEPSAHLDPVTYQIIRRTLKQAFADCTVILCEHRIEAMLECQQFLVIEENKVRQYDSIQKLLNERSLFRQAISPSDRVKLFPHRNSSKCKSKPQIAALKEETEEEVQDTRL

Activity [1]	Structure (SMILES)	Activity (BHK)
11.2 nM/s	Cc1ccc(O)c(-c2cc(-c3ccc(C#CCNS(=O)(=O)c4cccc5c(N(C)C)cccc45)cc3)[nH]n2)c1	1.7 nM/s
–	Cc1ccc(O)c(-c2cc(-c3ccc(N=[N+]=[N-])cc3)[nH]n2)c1	5.1 nM/s
–	Cc1ccc(O)c(-c2cc(-c3ccc(I)cc3)[nH]n2)c1	5.1 nM/s
–	Cc1ccc(O)c(-c2cc(-c3ccc(N)cc3)[nH]n2)c1	5.1 nM/s
16.9 nM/s	Cc1ccc(O)c(-c2cc(-c3ccccc3)[nH]n2)c1	9.9 nM/s
–	Cc1ccc(O)c(-c2cc(-c3ccc([N+](=O)[O-])cc3)[nH]n2)c1	5.1 nM/s
